# In PubChem BioAssay AID190 (DTP/NCI, 2004):
# “And” between values parts separate entries of the source, which are not always exact repeats. Equal values may be shown once. Toxic doses and inconclusive results are not listed.
# Tested on: AKR/Lw mice, AKR lymphoma ip, median survival T/C
# Test: NCI In Vivo Anticancer Drug Screen. Data for tumor model Lymphoma AKR (Transplanted) (intraperitoneal) in AKR/Lw mice
# Settings: endpoint: median survival time, higher = longer survival
# Procedure: The antitumor activity of compounds was measured in mice bearing transplantable tumors. Survival or tumor size were measured and the results are expressed as the measurement made in the treated group (T) divided by the measurement made in the vehicle treated control group (C). The tumor model used in this assay is Lymphoma AKR (Transplanted) (intraperitoneal) in AKR/Lw mice
# [1] = dose: 0.12 mg/kg/injection, schedule: Q01DX009 (ip), vehicle: saline
# [2] = dose: 100.0 mg/kg/injection, schedule: Q01DX001 (ip), vehicle: Klucel (hydroxypropylcellulose) (HPC)
# [3] = dose: 200.0 mg/kg/injection, schedule: Q01DX001 (ip), vehicle: Klucel (hydroxypropylcellulose) (HPC)
# [4] = dose: 100.0 mg/kg/injection, schedule: Q04DX003 (ip), vehicle: Klucel (hydroxypropylcellulose) (HPC)
# [5] = dose: 200.0 mg/kg/injection, schedule: Q04DX003 (ip), vehicle: Klucel (hydroxypropylcellulose) (HPC)
# [6] = dose: 400.0 mg/kg/injection, schedule: Q01DX001 (ip), vehicle: Klucel (hydroxypropylcellulose) (HPC)
# [7] = dose: 100.0 mg/kg/injection, schedule: Q01DX001 (ip), vehicle: saline
# [8] = dose: 200.0 mg/kg/injection, schedule: Q01DX001 (ip), vehicle: saline
# [9] = dose: 400.0 mg/kg/injection, schedule: Q01DX001 (ip), vehicle: saline
smiles,measurement,setting,value
CO[C@H](C(=O)[C@@H](O)[C@@H](C)O)[C@@H]1Cc2cc3cc(OC4CC(OC5CC(O)C(O)C(C)O5)C(O)C(C)O4)c(C)c(O)c3c(O)c2C(=O)[C@H]1OC1CC(OC2CC(OC3CC(C)(O)C(O)C(C)O3)C(O)C(C)O2)C(O)C(C)O1 (stereo partly specified),T/C,[1],115 % of control
same,T/C,"dose: 0.25 mg/kg/injection, schedule: Q01DX009 (ip), vehicle: water",95 % of control
same,T/C,"dose: 0.5 mg/kg/injection, schedule: Q01DX009 (ip), vehicle: water",110 % of control
CC[CH](C)[Hg][c]1cccc2ccccc12 (stereo unspecified),T/C,[2],91 % of control
same,T/C,[3],86 % of control
Nc1ccc(OCc2ccc(S(=O)(=O)F)c(Cl)c2)c(Cl)c1,T/C,"dose: 50.0 mg/kg/injection, schedule: Q04DX003 (ip), vehicle: Klucel (hydroxypropylcellulose) (HPC)",88 % of control
same,T/C,[2],87 % of control
same,T/C,[4],86 % of control
same,T/C,"dose: 150.0 mg/kg/injection, schedule: Q01DX009 (ip), vehicle: Klucel (hydroxypropylcellulose) (HPC)",112 % of control
same,T/C,[3],90 % of control
same,T/C,[5],111 % of control
CC(C)n1c(=S)[nH]c2ccccc2c1=O,T/C,[2],90 % of control
same,T/C,[3],118 % of control
same,T/C,[6],104 % of control
N=c1ccn2c(n1)OC1C(O)C(CO)OC12 (stereo unspecified),T/C,"dose: 6.0 mg/kg/injection, schedule: Q01DX009 (ip), vehicle: saline",105 % of control
same,T/C,"dose: 6.2 mg/kg/injection, schedule: Q01DX009 (ip), vehicle: saline",100 % of control
same,T/C,"dose: 12.0 mg/kg/injection, schedule: Q01DX009 (ip), vehicle: saline",105 % of control
same,T/C,"dose: 12.5 mg/kg/injection, schedule: Q01DX009 (ip), vehicle: saline",114 % of control and 120 % of control
same,T/C,"dose: 25.0 mg/kg/injection, schedule: Q04DX003 (ip), vehicle: saline",100 % of control
same,T/C,"dose: 37.5 mg/kg/injection, schedule: Q01DX009 (ip), vehicle: saline",111 % of control
same,T/C,"dose: 50.0 mg/kg/injection, schedule: Q01DX001 (ip), vehicle: saline",111 % of control
same,T/C,"dose: 50.0 mg/kg/injection, schedule: Q04DX003 (ip), vehicle: saline",102 % of control
same,T/C,[7],91 % of control and 117 % of control
same,T/C,[8],105 % of control and 111 % of control
same,T/C,"dose: 300.0 mg/kg/injection, schedule: Q01DX001 (ip), vehicle: saline",123 % of control
same,T/C,"dose: 300.0 mg/kg/injection, schedule: Q01DX009 (ip), vehicle: saline",153 % of control
same,T/C,"dose: 500.0 mg/kg/injection, schedule: Q01DX009 (ip), vehicle: saline",105 % of control
same,T/C,"dose: 600.0 mg/kg/injection, schedule: Q04DX003 (ip), vehicle: saline",168 % of control
Cc1ccc(S(=O)(=O)Nc2ccccc2-c2nc3c(Cl)ccc(Cl)c3c(=O)o2)cc1,T/C,[2],96 % of control
same,T/C,[4],90 % of control
same,T/C,[3],103 % of control
same,T/C,[5],90 % of control
same,T/C,[6],93 % of control
Nc1nc(=S)c2[nH]cnc2[nH]1,T/C,[1],96 % of control
same,T/C,"dose: 0.25 mg/kg/injection, schedule: Q01DX009 (ip), vehicle: saline",96 % of control
same,T/C,"dose: 0.5 mg/kg/injection, schedule: Q01DX009 (ip), vehicle: saline",110 % of control
same,T/C,"dose: 0.5 mg/kg/injection, schedule: Q04DX003 (ip), vehicle: saline",110 % of control
same,T/C,"dose: 1.0 mg/kg/injection, schedule: Q01DX009 (ip), vehicle: saline",93 % of control and 100 % of control
same,T/C,"dose: 1.0 mg/kg/injection, schedule: Q04DX003 (ip), vehicle: saline",120 % of control
same,T/C,"dose: 2.0 mg/kg/injection, schedule: Q01DX009 (ip), vehicle: saline",87 % of control
same,T/C,"dose: 2.0 mg/kg/injection, schedule: Q04DX003 (ip), vehicle: saline",116 % of control
same,T/C,"dose: 4.0 mg/kg/injection, schedule: Q04DX003 (ip), vehicle: saline",120 % of control
same,T/C,"dose: 8.0 mg/kg/injection, schedule: Q04DX003 (ip), vehicle: saline",87 % of control
same,T/C,"dose: 16.0 mg/kg/injection, schedule: Q04DX003 (ip), vehicle: saline",118 % of control
same,T/C,"dose: 6.2 micrograms/kg/injection, schedule: Q03HX032 (ip), vehicle: saline",98 % of control
same,T/C,"dose: 12.5 micrograms/kg/injection, schedule: Q03HX032 (ip), vehicle: saline",98 % of control
same,T/C,"dose: 25.0 micrograms/kg/injection, schedule: Q03HX032 (ip), vehicle: saline",101 % of control
same,T/C,"dose: 50.0 micrograms/kg/injection, schedule: Q03HX032 (ip), vehicle: saline",114 % of control
same,T/C,"dose: 100.0 micrograms/kg/injection, schedule: Q03HX032 (ip), vehicle: saline",118 % of control
CC(=O)CC(=O)c1ccccc1.CC(=O)CC(=O)c1ccccc1.CC(=O)CC(=O)c1ccccc1.[Co],T/C,"dose: 25.0 mg/kg/injection, schedule: Q01DX001 (ip), vehicle: Klucel (hydroxypropylcellulose) (HPC)",100 % of control
same,T/C,"dose: 50.0 mg/kg/injection, schedule: Q01DX001 (ip), vehicle: Klucel (hydroxypropylcellulose) (HPC)",100 % of control
CC(/C=N/N=C(N)N)=N\N=C(N)N,T/C,"dose: 1.5 mg/kg/injection, schedule: Q01DX015 (ip), vehicle: saline",87 % of control
same,T/C,"dose: 5.0 mg/kg/injection, schedule: Q01DX015 (ip), vehicle: saline",90 % of control
same,T/C,"dose: 6.25 mg/kg/injection, schedule: Q01DX015 (ip), vehicle: saline",96 % of control
same,T/C,"dose: 10.0 mg/kg/injection, schedule: Q01DX015 (ip), vehicle: saline",90 % of control
C1=CC2(OCCO2)C2CC=CC3(OCCO3)C2C1 (stereo unspecified),T/C,[7],104 % of control
same,T/C,[8],97 % of control
same,T/C,[9],95 % of control
O=C1CCSCCN1,T/C,[7],95 % of control
same,T/C,[8],86 % of control
c1cc2cc3c(cc2cc1CC1NCCc2cc4c(cc21)OCO4)OCO3 (stereo unspecified),T/C,[2],94 % of control
same,T/C,[4],96 % of control
same,T/C,[3],105 % of control
same,T/C,[6],94 % of control
COc1cc2ccc(CCNCc3ccccc3)cc2cc1OC,T/C,"dose: 25.0 mg/kg/injection, schedule: Q04DX003 (ip), vehicle: saline sonified",92 % of control
same,T/C,"dose: 50.0 mg/kg/injection, schedule: Q04DX003 (ip), vehicle: saline sonified",95 % of control
same,T/C,[7],116 % of control
same,T/C,"dose: 100.0 mg/kg/injection, schedule: Q04DX003 (ip), vehicle: saline sonified",92 % of control
Cc1cccc(C)c1NC(=S)N(C)C,T/C,"dose: 2.5 mg/kg/injection, schedule: Q04DX003 (ip), vehicle: Klucel (hydroxypropylcellulose) (HPC)",91 % of control
same,T/C,"dose: 5.0 mg/kg/injection, schedule: Q04DX003 (ip), vehicle: Klucel (hydroxypropylcellulose) (HPC)",94 % of control
same,T/C,"dose: 10.0 mg/kg/injection, schedule: Q04DX003 (ip), vehicle: Klucel (hydroxypropylcellulose) (HPC)",102 % of control
same,T/C,[2],92 % of control
same,T/C,[6],111 % of control
OCC1(O)CC(O)C(O)(CO)CC1O (stereo unspecified),T/C,[7],97 % of control
same,T/C,[8],116 % of control
same,T/C,[9],104 % of control
